Structures can show the parent of a compound that is named as a salt.
Tests used:
Assay type in all cases: in vivo, humans
[1] = system: perception of the sweet taste of an aqueous solution of sweetener; assay: Two-alternative forced choice sip and spit method (2AFC); conditions: compound 20 ppm with positive 2AFC
Procedure: The effect of the test compounds on the perception of the sweet taste of an aqueous solution of sweetener in humans was evaluated using a two-alternative forced choice “sip and spit” method (2AFC).
(§1) The aqueous sweetener solutions were prepared by adding, fructose, sucrose or glucose (by weight), to water to achieve the desired concentration.
(§2) Compounds were first prepared as a 500-fold concentrated stock solution in 100% ethanol. These concentrated stocks were then added to the aqueous sweetener solutions to result in a final ethanol concentration of 0.2%. The control (positive and negative) samples were also normalized to 0.2% ethanol. This level of ethanol was not seen to contribute any perceived sweetness.
The 2AFC test used for compound evaluation was a blind and randomized test where taste panelists (n=15) evaluate a pair of sweetener solutions at a time—one sample contains aqueous sweetener solution plus compound (i.e. test) while the other contains aqueous sweetener solution at higher concentration without compound (i.e. positive control). Each test sample was compared against a positive control. For example, if the test sample contained 1× sweetener concentration with compound (e.g. 5% sucrose with compound), the positive control sample contained a 1.1× sweetener concentration (e.g. 5.5% sucrose without compound).
Panelists were instructed not to eat or drink (except water) for at least 1 h before the test. During the test, panelists were instructed to sip each sample, swirl it around their mouth and then expectorate. After tasting each sample in the pair, panelists were instructed to record the sample that is “sweeter” in taste. Panelists cleansed their palates by rinsing with water, eating a cracker and waiting for an interval of about 5 minutes. Each pair was tasted twice. All samples were tasted at ambient temperatures. Data were analyzed using binomial probabilities.
Approximate levels of sweetness enhancement in column 5 of Table 2 were calculated as follows:
Approximate levels of sweetness enhancement=Sweetener concentration of positive control surpassed by the test sample, divided by sweetener concentration for compound-containing sample (e.g. 1.15×=5.75% sucrose/5% sucrose).

[2] = system: perception of the sweet taste of an aqueous solution of sweetener; assay: Ranking sip and spit test of sweetness perception (R index); conditions: 5% sucrose test sample, vs negative control
Procedure: The effect of the test compounds on the perception of the sweet taste of an aqueous solution of sweetener in humans was evaluated using a ranking “sip and spit” method.
as §1
Compounds were first prepared as a 500-fold concentrated stock solution in 100% ethanol. These concentrated stocks were then added to the aqueous sweetener solutions to result in a final ethanol concentration of 0.2%. The control (positive and negative) samples were also normalized to 0.2% ethanol.
In the ranking test used for compound evaluation, taste panelists (n=15), rank samples in increasing order of sweetness. One set, comprising of 6 samples, was presented to each panelists at a given time and are asked to rank them in order of increasing sweetness.
Panelists were instructed not to eat or drink (except water) for at least 1 h before the test. During the test, panelists were instructed to sip each sample, swirl it around their mouth and then expectorate. After tasting each set, panelists were instructed to rank the 6 samples within the set from least sweet to most sweet. Where rank 1—is lowest in sweetness and rank 6—is highest in sweetness. Panelists cleansed their palates by rinsing with water, eating a cracker and waiting for an interval of 10 minutes. All samples were tasted at ambient temperatures. Each sample was tasted twice.
R index analysis was utilized to determine the degree of difference between a test and control sample. It indicates the level of discrimination between two samples. […] A positive control sample was used to assess the ability of the panelists to accurately discriminate sweetness perception differences from the negative control.

[3] = system: perception of sweet taste, in an aqueous solution; assay: Inherent sweetness assessment, difference from control sip and spit method; conditions: compound 10 ppm in water, no sweetener
Procedure: The aqueous sucrose solutions were prepared by adding, sucrose (by weight), to water to achieve the desired concentration.
as §2, with “water” for “the aqueous sweetener solutions”, “(including positive control)” for “(positive and negative)”
The intrinsic effect of test compounds on the perception of sweet taste, in an aqueous solution, in humans was evaluated using a difference from control “sip and spit” method employing a verbal category scale.
In this method, panelists (n=12) evaluate one pair of samples at a time—one sample contains water plus compound (i.e. test) while the other contains water without compound (i.e. control). Panelists were instructed to first taste the un-blinded control followed by the test sample and asked to rate the size of sweetness difference between the test and control sample, using a 6 point verbal category scale:
Verbal category scale • No difference • Slight difference • Slight/moderate difference • Moderate difference • Moderate/large difference • Very large difference
4 blinded controls comprising of one negative control (0% sucrose) and 3 positive control samples (0.5% sucrose, 1% sucrose and 2% sucrose) were also included as part of the test to evaluate the ability of panelists to rank the difference in sweetness perception between 0.5% sucrose, 1% sucrose and 2% sucrose compared to 0% sucrose control.
Panelists were instructed not to eat or drink (except water) for at least 1 h before the test. During the test, panelists were instructed to sip each sample, swirl it around their mouth and then expectorate. Panelists cleansed their palates by rinsing with water, eating a cracker and waiting for an interval of about 5 minutes. All samples were tasted at ambient temperatures.
The verbal category response for each test sample was converted into an integer numerical value, from 1 to 6 (e.g. no difference=1 and very large difference=6). Total numbers of panelist responses per integer value were plotted as a histogram. An assessment was then made, comparing mean, mode of the numerical value, and the distribution of the histogram plots, for test samples as compared to that of the positive (0.5% sucrose, 1% sucrose and 2% sucrose) and negative control (0% sucrose) sample. Inherent sweetness levels are then correlated to the positive controls as discrete bins: • Bin 1: 0% sucrose • Bin 2: >0% sucrose—<0.5% sucrose • Bin 3: 0.5% sucrose • Bin 4: >0.5% sucrose—<1% sucrose • Bin 5: 1% sucrose • Bin 6: >1% sucrose—<2% sucrose • Bin 7: 2% sucrose

[4] = compound 10 ppm, significant at R index ≧60

Structure (SMILES)	Fold increase in perceived sweetness ([1]; test sample 4% fructose) [X]	R Index Score [2, 4]	also measured
COc1ccc(C2CC(=O)c3c(O)cc(OCCCC(=O)O)cc3O2)cc1O (centres unmarked) [Compound 4, 4-((5-hydroxy-2-(3-hydroxy-4-methoxyphenyl)-4-oxochroman-7-yl)oxy)butanoic acid]	>1.1		Fold increase in perceived sweetness ([1]; test sample 5% sucrose): >1.1X
CCCOc1ccc(C2CC(=O)c3c(O)cc(O)cc3O2)cc1O (centres unmarked) [Compound 5, 5,7-dihydroxy-2-(3-hydroxy-4-propoxyphenyl)chroman-4-one]	>1.1		
COc1ccc(C2CC(=O)c3c(O)cc(C)cc3O2)cc1O (centres unmarked) [Compound 6, 5-hydroxy-2-(3-hydroxy-4-methoxyphenyl)-7-methylchroman-4-one]		82	
O=C1CC(c2ccc(O)cc2)Oc2cccc(O)c21 (centres unmarked) [Compound 7, 5-hydroxy-2-(4-hydroxyphenyl)chroman-4-one]		71	
O=C1CC(c2ccc(O)c(O)c2)Oc2cccc(O)c21 (centres unmarked) [Compound 8, 2-(3,4-dihydroxyphenyl)-5-hydroxychroman-4-one]		69	
O=C1CC(c2cccc(O)c2)Oc2cc(O)cc(O)c21 (centres unmarked) [Compound 10, 5,7-dihydroxy-2-(3-hydroxyphenyl)chroman-4-one]		65	
O=C1CC(c2cccc(O)c2)Oc2cccc(O)c21 (centres unmarked) [Compound 12, 5-hydroxy-2-(3-hydroxyphenyl)chroman-4-one]			R Index Score ([2]; compound 2.5 ppm): 62
COC(=O)c1cccc(C2CC(=O)c3c(O)cc(O)cc3O2)c1 (centres unmarked) [Compound 13, methyl 3-(5,7-dihydroxy-4-oxochroman-2-yl)benzoate]		61	
COc1ccc(C2CC(=O)c3c(O)cc(OCCCS(=O)(=O)O)cc3O2)cc1O (centres unmarked) [Compound 14, 3-((5-hydroxy-2-(3-hydroxy-4-methoxyphenyl)-4-oxochroman-7-yl)oxy)propane-1-sulfonic acid potassium salt]	>1.1		
COc1ccc(C2CC(=O)c3c(O)cc(F)cc3O2)cc1O (centres unmarked) [Compound 15, 7-fluoro-5-hydroxy-2-(3-hydroxy-4-methoxyphenyl)chroman-4-one]	>1.1		Correlated Inherent Sweetness Assessment [3]: 0% sucrose
COc1cc(C2CC(=O)c3c(O)cccc3O2)ccc1C (centres unmarked) [Compound 16]			Fold increase in perceived sweetness ([1]; test sample 5% sucrose): >1.1X
COc1ccc(C2CC(=O)c3c(Cl)cc(O)cc3O2)cc1O (centres unmarked) [Compound 17]	1.1		

Reference: patent US20160015064A1, “COMPOUNDS, COMPOSITIONS, AND METHODS FOR MODULATING SWEET TASTE” (CHROMOCELL CORPORATION, priority 2013, published 2016)
